Assay [1] deals with TNF. In words: Rat pharmacodynamics: serum TNF by ELISA. It counts as in vivo, rats. To be noted: rat, in vivo, sc. In general terms: ELISA stands for enzyme-linked immunosorbent assay.
Assay [2] concerns cytokine and IFN-inducible gene expression in draining lymph nodes and spleen. The assay is classed as in vivo, mice. To be noted: mouse, in vivo, sc.

Turning to `CCOCc1nc2c(N)nc3ccccc3c2n1CC(C)(C)O` [R848, Resiquimod, reference compound], the “Blood tumor necrosis factor (TNF) concentrations, peak” value in assay [1] is ~1,000 pg/ml. Also, in assay [2], the “time of peak cytokine mRNA expression” value is 1 to 3 h.

Source of the values: patent publication US11464854B2, “Methods and compositions relating to adjuvants” (Children's Medical Center Corporation, priority 2017, dated 2022).
